In PubChem BioAssay AID2060504 (Molecular Pharmacology Branch, DTP, NCI, 2025):

Test system: 636577-100-R-J1-PDC complex spheroid viability
Assay: Anticancer human tumor 636577-100-R-J1-PDC patient-derived endometrial adenocarcinoma cell line growth inhibition [GQUAD]
Conditions: for IC50: curve of first compound; for viability, T/C: stronger effect = lower value
Excerpt: DNA G-quadruplex Stabilizer Agents in Combinations in Complex Spheroids
A high-throughput screen of multi-cell type tumor spheroids was designed to identify active combinations of DNA G-quadruplex stabilizer agents and targeted small molecules. Complex spheroids include a stromal component modeled by human endothelial cells (HUVEC) and fibroblasts modeled by human mesenchymal stem cells (MSCs). The concentration ranges selected for each drug and investigational agent were based upon clinically achievable concentrations if the clinical Cmax of the agent was known.
Compounds. The drugs and investigational agents: pidnarulex (CX-5461; NSC782164), APTO-253 (NSC789042), BRACO-19 (NSC847499), peposertib (NSC802822), ceralasertib (NSC780249), elimusertib (NSC800525), camonsertib (NSC841442), AZD-1390 (NSC803789), olaparib (NSC753686), talazoparib (NSC767125), ART-558 (NSC835418), sotorasib (NSC818433), MRTX-1133 (NSC836407), SN-38 (NSC673596), topotecan (NSC609699), etoposide (NSC141540), doxorubicin (NSC123127), gemcitabine (NSC613327), 5-fluorouracil (NSC19893), paclitaxel (NSC125973), vemurafenib (NSC761431), panobinostat (NSC761190), R-306465 (JNJ-16241199; NSC773264), adavosertib (NSC754352), TP-3654 (NSC805149), carboplatin (NSC241240), KSQ-4279 (NSC840948), and staurosporine (NSC755774) were obtained from the National Cancer Institute (NCI) Developmental Therapeutics Program Chemical Repository (34). The FDA-approved anticancer drug set is available from the NCI Developmental Therapeutics Program. […] The stock solutions were prepared in dimethyl sulfoxide (DMSO, Sigma-Aldrich, St. Louis, MO, cat. D2650) at 800-fold the tested concentration and stored at -70 degrees C prior to their use. All drugs and investigational agents were tested over a range starting from a high concentration at or near the clinical Cmax and decreasing in half-log increments. If the clinical Cmax for an agent had not been determined, the highest concentration tested was 10 microM.
2.3 Cell Culture. All cells were maintained in an incubator at 37 degrees C and 5% CO2 with 95% humidity. The PDC lines were cultured according to standard operating procedures established by the NCI PDMR. All PDCs were thawed and cultured in Matrigel-coated flasks prepared with a working solution of 1X Ham's F-12 nutrient mix, without supplementation (Invitrogen, cat. 11765054), 100 U/mL penicillin-streptomycin (Invitrogen, cat. 15140122), and 2.5% Matrigel (Corning Inc., cat. 354248) for the first three passages. The 857933-349-R-J2-PDC line was cultured in 6C/Colon 1B media, which includes advanced DMEM/F-12 (Thermo Fisher Scientific, cat. 12634028), 10 mM HEPES (Thermo Fisher Scientific, cat. 15630080), 1X GlutaMAX supplement (Thermo Fisher Scientific, cat. 35050061), 0.1 mg/mL primocin (InvivoGen, cat. ant-pm-2), 10% defined fetal bovine serum, heat inactivated (HyClone Laboratories Inc., cat. SH30070.03HI), 50% L-WRN conditioned media (ATCC, cat. CRL-3276), 1.25 mM N-Acetyl-L-cysteine (Sigma-Aldrich, cat. A9165), 10 mM nicotinamide (Sigma-Aldrich, cat. N0636), 1X B-27 supplement (Thermo Fisher Scientific, cat. 17504044), 1X N-2 supplement (Thermo Fisher Scientific, cat. 17502048), 10 microM Y-27632 dihydrochloride (Tocris Bioscience, cat. 1254), and 50 ng/mL human EGF recombinant protein (Thermo Fisher Scientific, cat. PHG0311). The 485176-168-R4-J1-PDC line was cultured in Panc media, which includes all 6C/Colon 1B media components plus 100 ng/mL human FGF-10 (Thermo Fisher Scientific, cat. 100-26), 500 nM SB-431542 (Selleckchem, cat. S1067), and gastrin (Tocris, cat. 3006).
[…]

[1] = second compound 0.0316 µM, first compound 0.0316 µM
[2] = second compound 0.0316 µM, first compound 0.1 µM
[3] = second compound 0.0316 µM, first compound 0.316 µM
[4] = second compound 0.0316 µM, first compound 1 µM
[5] = second compound 0.0316 µM, first compound 3.16 µM
[6] = second compound 0.0316 µM, first compound 10 µM
[7] = second compound 0.1 µM, first compound 0.0316 µM
[8] = second compound 0.1 µM, first compound 0.1 µM
[9] = second compound 0.1 µM, first compound 0.316 µM
[10] = second compound 0.1 µM, first compound 1 µM
[11] = second compound 0.1 µM, first compound 3.16 µM
[12] = second compound 0.1 µM, first compound 10 µM
[13] = second compound 0.316 µM, first compound 0.0316 µM
[14] = second compound 0.316 µM, first compound 0.1 µM
[15] = second compound 0.316 µM, first compound 0.316 µM
[16] = second compound 0.316 µM, first compound 1 µM
[17] = second compound 0.316 µM, first compound 3.16 µM
[18] = second compound 0.316 µM, first compound 10 µM
[19] = second compound 1 µM, first compound 0.0316 µM
[20] = second compound 1 µM, first compound 0.1 µM
[21] = second compound 1 µM, first compound 0.316 µM
[22] = second compound 1 µM, first compound 1 µM
[23] = second compound 1 µM, first compound 3.16 µM
[24] = second compound 1 µM, first compound 10 µM
[25] = second compound 3.16 µM, first compound 0.0316 µM
[26] = second compound 3.16 µM, first compound 0.1 µM
[27] = second compound 3.16 µM, first compound 0.316 µM
[28] = second compound 3.16 µM, first compound 1 µM
[29] = second compound 3.16 µM, first compound 3.16 µM
[30] = second compound 3.16 µM, first compound 10 µM
[31] = second compound 10 µM, first compound 0.0316 µM
[32] = second compound 10 µM, first compound 0.1 µM
[33] = second compound 10 µM, first compound 0.316 µM
[34] = second compound 10 µM, first compound 1 µM
[35] = second compound 10 µM, first compound 3.16 µM
[36] = second compound 10 µM, first compound 10 µM
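Further: viability read after seven days of drug exposure.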
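Wherever viability, T/C is given: luminescence signal used as a proxy for viable cells; 100% = DMSO vehicle control wells.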

COc1ncnc(C2CC2)c1-c1ncc2cnn(Cc3ccc(-c4nc(C(F)(F)F)cn4C(C)C)cc3)c2n1 + CN(C)c1ccc(Nc2c3ccc(NC(=O)CCN4CCCC4)cc3nc3cc(NC(=O)CCN4CCCC4)ccc23)cc1 was tested, and the IC50 (second compound 0.0316 µM) was > 10000 nM, the IC50 (second compound 0.1 µM) was > 10000 nM and the IC50 (second compound 0.316 µM) was > 10000 nM. The IC50 (second compound 1 µM) was 91.6 nM, the IC50 (second compound 3.16 µM) was < 31.6 nM and the IC50 (second compound 10 µM) was < 31.6 nM. It also gave a viability, T/C [1] of 79.6%, a viability, T/C [2] of 62.9% and a viability, T/C [3] of 69.6%. The viability, T/C [4] was 64%, the viability, T/C [5] was 56.9% and the viability, T/C [6] was 57.4%. The viability, T/C [7] was 69.4%, the viability, T/C [8] was 47.5% and the viability, T/C [9] was 66%. The viability, T/C [10] was 39.1%, the viability, T/C [11] was 63% and the viability, T/C [12] was 68.8%. It also gave a viability, T/C [13] of 71.5%, a viability, T/C [14] of 61.9% and a viability, T/C [15] of 58.1%. For the same compound, the viability, T/C [16] was 54.4%, the viability, T/C [17] was 64.2% and the viability, T/C [18] was 48.9%. For the same compound, the viability, T/C [19] was 57.2%, the viability, T/C [20] was 52.5% and the viability, T/C [21] was 49.2%. For the same compound, the viability, T/C [22] was 25.7%, the viability, T/C [23] was 54.3% and the viability, T/C [24] was 48.9%. For the same compound, the viability, T/C [25] was 32.4%, the viability, T/C [26] was 31.1% and the viability, T/C [27] was 36.2%. The viability, T/C [28] was 30.8%, the viability, T/C [29] was 26% and the viability, T/C [30] was 17.8%. The viability, T/C [31] was 4.33%, the viability, T/C [32] was 4.66% and the viability, T/C [33] was 3.91%. It also gave a viability, T/C [34] of 3.97%, a viability, T/C [35] of 2.12% and a viability, T/C [36] of 0.46%.

In the case of CC1COCCN1c1cc(C2(S(C)(=N)=O)CC2)nc(-c2ccnc3[nH]ccc23)n1 (centres undefined) + Cc1[nH]c2ccc(F)cc2c1-c1nc2c3cccnc3c3ncccc3c2[nH]1, the IC50 (second compound 0.0316 µM) is reported as 1180 nM, the IC50 (second compound 0.1 µM) is reported as 652 nM and the IC50 (second compound 0.316 µM) is reported as 678 nM. The IC50 (second compound 1 µM) was 501 nM, the IC50 (second compound 3.16 µM) was < 31.6 nM and the IC50 (second compound 10 µM) was 394 nM. For the same compound, the viability, T/C [1] was 57.4%, the viability, T/C [2] was 83.1% and the viability, T/C [3] was 94.3%. For the same compound, the viability, T/C [4] was 54.7%, the viability, T/C [5] was 27.9% and the viability, T/C [6] was 15.1%. For the same compound, the viability, T/C [7] was 93.4%, the viability, T/C [8] was 72% and the viability, T/C [9] was 64.8%. It also gave a viability, T/C [10] of 43.1%, a viability, T/C [11] of 27.2% and a viability, T/C [12] of 15.7%. The viability, T/C [13] was 51.2%, the viability, T/C [14] was 101% and the viability, T/C [15] was 63.3%. For the same compound, the viability, T/C [16] was 40.4%, the viability, T/C [17] was 23.5% and the viability, T/C [18] was 12.2%. It also gave a viability, T/C [19] of 50.7%, a viability, T/C [20] of 77.8% and a viability, T/C [21] of 60.8%. The viability, T/C [22] was 33.2%, the viability, T/C [23] was 22.3% and the viability, T/C [24] was 12.8%. For the same compound, the viability, T/C [25] was 28.7%, the viability, T/C [26] was 49% and the viability, T/C [27] was 31%. For the same compound, the viability, T/C [28] was 23.1%, the viability, T/C [29] was 15.9% and the viability, T/C [30] was 9.24%. The viability, T/C [31] was 46%, the viability, T/C [32] was 59.8% and the viability, T/C [33] was 56.5%. It also gave a viability, T/C [34] of 32.5%, a viability, T/C [35] of 18.6% and a viability, T/C [36] of 12.9%.
